Experimental data reported in US20220194936A1, “CRYSTALLINE FORMS OF N-(5-(5-((1R,2S)-2-FLUOROCYCLOPROPYL)-1,2,4-OXADIAZOL-3-YL)-2-METHYLPHENYL)IMIDAZO[1,2-A]PYRIDINE-3-CARBOXAMIDE” (Novartis AG, priority 2019, published 2022).
In brackets after ≈: the same amount, converted by molar mass. Where two headings read alike, the source gives them in different places.

Legend:
Type in all cases: physicochemical
[1] = Crystal modification after equilibration in water for 2 weeks (XRPD); settings: after 2 weeks in water
Protocol: 5-(5-((1R,2S)-2-fluorocyclopropyl)-1,2,4-oxadiazol-3-yl)-2-methylphenyl)imidazo[1,2-a]pyrindine-3-carboxamide Form A (10 mg) was placed in a vial containing water for 2 weeks and the sample was then examined by XRPD for physical stability determination. It was observed that after 2 weeks in water 5-(5-((1R,2S)-2-fluorocyclopropyl)-1,2,4-oxadiazol-3-yl)-2-methylphenyl)imidazo[1,2-a]pyridine-3-carboxamide Form A converted to 5-(5-((1R,2S)-2-fluorocyclopropyl)-1,2,4-oxadiazol-3-yl)-2-methylphenyl)imidazo[1,2-a]pyridine-3-carboxamide Form HB.
5-(5-((1R,2S)-2-fluorocyclopropyl)-1,2,4-oxadiazol-3-yl)-2-methylphenyl)imidazo[1,2-a]pyrindine-3-carboxamide Fumaric acid co-crystal (10 mg) was placed in a vial containing water for 2 weeks and the sample was then examined by XRPD for physical stability determination. No change in XRPD was observed after 2 weeks in water.

[2] = Solubility in various media at 25° C. after 24 hours equilibration (HPLC); settings: for solubility at 24 h: thermodynamic from solid, read-out: Conc. (solubility)
Protocol: (§1) 5-(5-((I R,2S)-2-fluorocyclopropyl)-1,2,4-oxadiazol-3-yl)-2-methylphenyl)imidazo[1,2-a]pyridine-3-carboxamide Form A (10 mg) in various media (1 mL) were mixed in a glass vial to make a slurry. Each sample was equilibrated at 25° C. for 24 hrs, and centrifuged at 13400 r.p.m. for 3 mins with 0.2 μm membrane to separate solids from liquids. The liquid was used to measure solubility by HPLC. Table 6 provides solubility data of 5-(5-((1R,2S)-2-fluorocyclopropyl)-1,2,4-oxadiazol-3-yl)-2-methylphenyl)imidazo[1,2-a]pyridine-3-carboxamide Form A at 25° C. after 24 hours equilibration and the final pH of the sample.
as §1, with “5-(5-((1R,2S)-2-fluorocyclopropyl)-1,2,4-oxadiazol-3-yl)-2-methylphenyl)imidazo[1,2-a]pyridine-3-carboxamide fumaric acid co-crystal” for “5-(5-((I R,2S)-2-fluorocyclopropyl)-1,2,4-oxadiazol-3-yl)-2-methylphenyl)imidazo[1,2-a]pyridine-3-carboxamide Form A”, “10” for “6”, “fumaric acid co-crystal” for “Form A”

[3] = Evaluation of the effect of grinding and granulation; settings: Grinding and granulation with added water or ethanol
Protocol: 5-(5-((1R,2S)-2-fluorocyclopropyl)-1,2,4-oxadiazol-3-yl)-2-methylphenyl)imidazo[1,2-a]pyridine-3-carboxamide Form A (10 mg) was placed in a container and ground with added water or ethanol.
5-(5-((1R,2S)-2-fluorocyclopropyl)-1,2,4-oxadiazol-3-yl)-2-methylphenyl)imidazo[1,2-a]pyridine-3-carboxamide fumaric acid co-crystal (10 mg) was placed in a container and ground with added water or ethanol.

[4] = Evaluation of humidity at elevated temperature (solid state, open vial, 75% RH, 1 week; HPLC, XRPD, color); settings: for Bulk (XRPD): 50° C. and 80° C.
Protocol: (§2) (5-(5-((1R,2S)-2-fluorocyclopropyl)-1,2,4-oxadiazol-3-yl)-2-methylphenyl)imidazo[1,2-a]pyridine-3-carboxamide Form A (10 mg) was placed in an open vial in a 75% relative humidity (RH) chamber at 50° C. for one week and also in an open vial in a 75% relative humidity (RH) chamber at 80° C. for one week. The initial purity of (5-(5-((1R,2S)-2-fluorocyclopropyl)-1,2,4-oxadiazol-3-yl)-2-methylphenyl)imidazo[1,2-a]pyridine-3-carboxamide Form A was 99.7%.
The samples were examined by XRPD for physical stability determination and by HPLC for chemical stability determination indicated by the presence of degradation products (DP).
The HPLC method used is […]
The color (CL) of the samples was evaluated by visual observation.
as §2, with “fumaric acid co-crystal” for “Form A”
The samples were examined by XRPD for physical stability determination and by HPLC for chemical stability determination indicated by the presence of degradation products (DP). The HPLC method used is […]

[5] = Water activity evaluation - crystal modification (water/ethanol, 2 weeks, XRPD)
Protocol: 5-(5-((1R,2S)-2-fluorocyclopropyl)-1,2,4-oxadiazol-3-yl)-2-methylphenyl)imidazo[1,2-a]pyrindine-3-carboxamide Form A (10 mg) was placed in a vials containing various ratios of water and ethanol and allowed to equilibrate for 2 weeks. The samples were then examined by XRPD for physical stability determination. The results are given below in Table 5 which show conversion to Form HA and Form HB occurs depending on the water activity. […]

[6] = FaSSIF-V2, pH 6.5, 25° C., LOQ = Limit of Quantitation +/− 0.5 μg/ml
[7] = Water, 25° C., LOQ = Limit of Quantitation +/− 0.5 μg/ml
[8] = pH 4.7, acetate buffer, 25° C., LOQ = Limit of Quantitation +/− 0.5 μg/ml
[9] = pH 6.8, phosphate buffer, 25° C.
[10] = pH 6.8, phosphate buffer, 25° C., LOQ = Limit of Quantitation +/− 0.5 μg/ml
[11] = pH 10.0, borate buffer, 25° C., LOQ = Limit of Quantitation +/− 0.5 μg/ml
[12] = Water activity 0.000, Water/ethanol (v/v) 0.000/1.000, 2 weeks
[13] = Water activity 0.099, Water/ethanol (v/v) 0.013/0.987, 2 weeks

Crystal modification by XRPD [1] | Final pH ([2]; FaSSIF-V2, pH 6.5, 25° C.) | Conc. (solubility) [2, 6] | Final pH ([2]; FeSSIF-V2, pH 5.8, 25° C.) | Conc. (solubility) ([2]; SGF pH 2.0, 25° C.) [µg/mL] | Final pH ([2]; SGF pH 2.0, 25° C.) | Final pH ([2]; Water, 25° C.) | Conc. (solubility) [2, 7] | Final pH ([2]; pH 1.0 (0.1N HCl), 25° C.) | Final pH ([2]; pH 2.0 (0.01N HCl), 25° C.) | Final pH ([2]; pH 4.7, acetate buffer, 25° C.) | Conc. (solubility) [2, 8] | Final pH [2, 9] | Conc. (solubility) [2, 10] | Final pH ([2]; pH 10.0, borate buffer, 25° C.) | Conc. (solubility) [2, 11] | Change in solid state [3] | CL (color) ([4]; 50° C.) | DP (%) degradation products, Bulk (HPLC) ([4]; 50° C.) [%] | Bulk (XRPD) [4] | SMILES | further results
Form HB | 6.40 | LOQ | 5.63 | 640 | 2.10 | 7.91 | LOQ | 1.20 | 2.06 | 4.78 | LOQ | 6.77 | LOQ | 10.02 | LOQ | no change in solid state | No change | 0.06 | Bulk (XRPD): No change | Cc1ccc(-c2noc([C@H]3C[C@@H]3F)n2)cc1NC(=O)c1cnc2ccccn12 [Form A, N-(5-(5-((1R,2S)-2-fluorocyclopropyl)-1,2,4-oxadiazol-3-yl)-2-methylphenyl)imidazo[1,2-a]pyridine-3-carboxamide] | solubility at 24 h ([2]; 0.01N HCl, 25 °C, pH 2, simulated gastric fluid, pH 2.0 (0.01N HCl), 25° C.): 210 µg/mL (≈ 556 µM); solubility at 24 h ([2]; 0.1N HCl, 25 °C, pH 1, simulated gastric fluid, pH 1.0 (0.1N HCl), 25° C.): 440 µg/mL (≈ 1170 µM); solubility at 24 h ([2]; FeSSIF-V2, 25 °C, pH 5.8, fessif, FeSSIF-V2, pH 5.8, 25° C.): 15 µg/mL (≈ 39.7 µM); CL (color) ([4]; 80° C.): No change; DP (%) degradation products, Bulk (HPLC) ([4]; 80° C.): 0.06%; Modification (XRPD) [5, 12]: No change; Modification (XRPD) [5, 13]: No change
No change | 4.66 | LOQ | 4.75 | 180 | 1.94 | 4.26 | LOQ | 0.95 | 1.98 | 4.51 | LOQ | 5.79 | LOQ | 8.76 | LOQ | no change in solid state | No change | 0.11 | Bulk (XRPD): No change | Cc1ccc(-c2noc([C@H]3C[C@@H]3F)n2)cc1NC(=O)c1cnc2ccccn12 [fumaric acid co-crystal, N-(5-(5-((1R,2S)-2-fluorocyclopropyl)-1,2,4-oxadiazol-3-yl)-2-methylphenyl)imidazo[1,2-a]pyridine-3-carboxamide fumaric acid co-crystal] | Conc. (solubility) ([2]; FeSSIF-V2, pH 5.8, 25° C.): 8 µg/mL; Conc. (solubility) ([2]; pH 1.0 (0.1N HCl), 25° C.): 410 µg/mL; Conc. (solubility) ([2]; pH 2.0 (0.01N HCl), 25° C.): 190 µg/mL; CL (color) ([4]; 80° C.): No change; DP (%) degradation products, Bulk (HPLC) ([4]; 80° C.): 0.09%; Modification (XRPD) [5, 12]: No change; Modification (XRPD) [5, 13]: No change; Modification (XRPD) ([5]; Water activity 0.205, Water/ethanol (v/v) 0.030/0.970, 2 weeks): No change; Modification (XRPD) ([5]; Water activity 0.298, Water/ethanol (v/v) 0.048/0.952, 2 weeks): No change; Modification (XRPD) ([5]; Water activity 0.398, Water/ethanol (v/v) 0.073/0.927, 2 weeks): No change; Modification (XRPD) ([5]; Water activity 0.502, Water/ethanol (v/v) 0.104/0.896, 2 weeks): No change; Modification (XRPD) ([5]; Water activity 0.605, Water/ethanol (v/v) 0.145/0.855, 2 weeks): No change; Modification (XRPD) ([5]; Water activity 0.700, Water/ethanol (v/v) 0.198/0.802, 2 weeks): No change; Modification (XRPD) ([5]; Water activity 0.802, Water/ethanol (v/v) 0.296/0.704, 2 weeks): No change; Modification (XRPD) ([5]; Water activity 0.900, Water/ethanol (v/v) 0.550/0.450, 2 weeks): No change; Modification (XRPD) ([5]; Water activity 1.000, Water/ethanol (v/v) 1.000/0.000, 2 weeks): No change
